This is an account of results in patent US4659707A, “Aminoacyl derivatives of 4,9-dihydro-10H-pyrido[3,2-b]thieno[3,2-e][1,4]diazepinone and of 4,9-dihydro-10H-pyrido[3,2-b]thieno[3,4-e][1,4]diazepinone, their preparation and pharmaceutical compositions containing them” (Dompe' Farmaceutici S.p.A., priority 1985, dated 1987).

The test system of one data set is Gastric acid secretion. Briefly: Gastric acid secretion in the pylorus ligated rat. Particulars: oral immediately after pylorus ligation, ligation 4 hours, read-out: Antisecretory activity ED50 (confidence limits p = 0.95). In kind it is in vivo, male Sprague-Dawley rats. As to the method: 1. Gastric acid secretion in the pylorus ligated rat The method of […]., Gruenstein M., Siplet H., Gastroenterology, 5, 43 (1945) was used, slightly modified according to the following: Male Sprague-Dawley rats weighing 150±5 g fasting since 48 hours were used. Pylorus ligation was performed for 4 hours. The products under exam were administered by the oral route immediately after the ligation.

The test system of a further data set is Stress ulcer. As to the kind of experiment: Stress ulcer (restraint+immersion) in the rat. Particulars: po, 6 hours immersion at about 20° C., ulcer score 0 to 5, read-out: Antiulcer activity (stress ulcer) ED50 (confidence limits p = 0.95). In kind it is in vivo. As to the method:
2. Stress ulcer (restraint+immersion) in the rat The method described by Takagi, K., Okabes, S., Jap. J. Pharmacol., 18, 9 (1968) has been used. The animals fasted for 48 hours were immobilized in a stress cage (drilled cylindrical tube 14.5×3.5 cm) and immersed in H2 O (at a temperature of about 20° C.) up to the xiphoid process. After 6 hours immersion the animals were sacrificed in excess ether, the stomach was drawn and opened along the great curvature. The ulcers were evaluated according to a score ranging from 0 to 5 assigning: 0.5 for each small ulcera (<3 mm) or in the presence of erosions or haemorrages 1 for each great ulcer (>3 mm). The oral treatment with the reference drug pirenzepine at the doses of 12.5--25--50 mg/kg has been carried out 1 hour before the stress.

Another data set deals with Carbachole salivation. As to the kind of experiment: Charbacole salivation in the rat. The following applies: 1 h, oral one hour before 1 mg/kg i.p. charbacole, read-out: Carbachole salivation ED50 (confidence limits p = 0.95). The format is in vivo, male Sprague-Dawley rats. As to the method:
3. Charbacole salivation in the rat The method cited by R. Turner: "Parasympatholytic Agents" in R. Turner "Screening Methods in Pharmacology" pag. 137. Academic Press. New York & London 1965, with slight changes, was used. Male Sprague-Dawley rats, average weight 150±5 g, fasted for 24 hours, were used. The salivation was induced by the intraperitoneal administration of 1 mg/kg of charbacole. The products under exam were administered orally one hour before the chollinergic stimulus.

A further data set deals with Tremors by oxotremorine. Briefly: Oxotremorine tremors in the mouse. The following applies: oral 60 minutes before 2 mg/kg i.p. oxotremorine, read-out: Tremors by oxotremorine ED50 (confidence limits p). The format is in vivo.
Another data set can be described thus: Acute toxicity. The following applies: mouse, in vivo; Swiss mice, oral, observation 14 days. As to the method:
The acute toxicity was determined by administering by oral route the substances under exam to Swiss mice; average weight 20±2 g. The observation period was 14 days. 10 Animals were used for each tested dose.

Some results are limits rather than exact numbers.

Turning to `CN1CCN(CC(=O)N2c3cscc3C(=O)Nc3cccnc32)CC1` [Example 13, 4-[(4-Methylpiperazin-1-yl)acetyl]-4,9-dihydro-10H-pyrido[3,2-b]thieno[3,4-e][1,4]-diazepin-10-one], the ED50 (in general, the midpoint of the dose-response relation) with Gastric acid secretion was 12.4 mg/kg; in the data set on Stress ulcer, 28.8 mg/kg; in the data set on Carbachole salivation, more than 200 mg/kg; in the data set with Tremors by oxotremorine, more than 1000 mg/kg. Moreover, the LD50 – broadly, the dose expected to kill half of the subjects tested – at 336 h in “Acute toxicity” was more than 1000 mg/kg.

With `Cc1scc2c1N(C(=O)CN1CCN(C)CC1)c1ncccc1NC2=O` [Example 14, 4-[(4-Methylpiperazin-1-yl)acetyl]-3-methyl-4,9-dihydro-10H-pyrido[3,2-b]thieno[3,4-e][1,4]-diazepin-10-one], the ED50 is 3.12 mg/kg in the data set on Gastric acid secretion, 4.43 mg/kg with Stress ulcer, 3.36 mg/kg in the data set on Carbachole salivation and more than 10000 mg/kg in the data set on Tremors by oxotremorine. This compound also returned an LD50 at 336 h in “Acute toxicity” of more than 500 mg/kg.

As for `CN1CCN(CC(=O)N2c3ccsc3C(=O)Nc3cccnc32)CC1.Cl` [Example 3, 4-[(4-Methylpiperazin-1-yl)acetyl]-4,9-dihydro-10H-pyrido[3,2-b]thieno[3,2-e][1,4]-diazepin-10-one hydrochloride], the ED50 in the data set on Gastric acid secretion is 27.6 mg/kg; in the data set on Stress ulcer, 55.9 mg/kg; in the data set on Carbachole salivation, more than 200 mg/kg; in the data set with Tremors by oxotremorine, more than 1000 mg/kg. For the same compound, in the data set “Acute toxicity”, the median lethal dose (LD50) at 336 h was more than 2000 mg/kg.
